Source: patent US20060035295A1, “Method for determination of thymidine kinase 1 activity and the use thereof” (priority 2002, published 2006)
“Also recorded” adds a separate entry of the source.

Columns and labels:
phosphatases = experiment: TK ELISA with UMP in substrate buffer to inhibit phosphatase activity; format: biochemical, human; conditions: 1 mM UMP; two of four tested sera
Method: A potential problem for the analysis of a kinase activity in patient sera is the presence of phosphatase activity in the same sera to drive the reverse reaction (dephosphorylaUon). One way to inhibit the phosphatase is to include UMP in the substrate buffer to protect AZTMP from being dephosphorylated to AZT.
Substrate buffers containing 172 mM HEPES, 62 mM NaOH, 62 mM MgCl2*6H2O, 34 mM KCl, 142 mM Mannitol, 7,8 mM ATP, 12 mM DTE, and 25 μg/ml AZT were prepared—with variable concentrations UMP, i.e. 0, 0.1, 1 or 5 mM UMP.
A TK1 standard preparation 80 U/L (in heat inactivated fetal calf serum) was diluted in 9 g/L deionized-water, also used as zero standard level, to give further standard levels of 40, 20, 10, 5 and 2,5 U/L, respectively. Four human sera were also assayed. Two sera were from healthy blood donors and two sera from patients monitored with TK REA.
Next the TK reactions were performed by adding 50 μl of substrate buffer together with 50 μL of TK1 standard/or patient serum sample in non-coated microtitre wells.
The plate was incubated for 60 minutes at 37° C. […]
For the detection 50 μl were transferred to a plate which plate was coated with 1 μg/well rabbit anti chicken IgY (Sigma, MO, USA). […] The TMB reaction was stopped with 100 μl acid TMB stop and the absorbance read at 450 nm.

[1] = test system: chicken anti-AZTMP antibodies; experiment: Competitive assay for anti-AZTMP antibody specificity (AZXMP hapten coated plates); format: binding; conditions: increasing amounts of competitor added to anti-AZTMP antibody solution; FIG. 2
Method: FIG. 2 Anti-AZTMP antibody specificity. Dose response curve for the competitive assay, according to example 1, between free AZTMP (left curve, denoted AZTMP) or AZT (right curve, denoted AZT) and Immobilised hapten, AZXMP (see FIG. 1) illustrating the specificity of chicken anti-AZTMP antibodies. Y-axis: original absorbance values (B) are normalised against values obtained in the absence of competitor (B0) to obtain (B/B0).
Antibody specificity and titre were evaluated using the competitive assay format described in example 4. To evaluate non-specific binding the antibody was substituted with diluent. Antibody specificity and titre was also evaluated using an assay whereby AZXMP hapten was coated to plates. AZXMP was conjugated to BSA using GA as linker and subsequently coated to the microtiter plates. In this assay, 100 μl of serially diluted antibody solutions were first incubated with AZXMP coated wells for 1 h at RT.
Wells of microtiter plates were washed three times with PBST (PBS plus 0,05% Tween 20). 100 μL of secondary antibody (diluted Horse Radish Peroxidase (HRP)-labelled anti-Goat IgG solution or anti-IgY antibody) was added and incubated for 30 min at room temperature. After 3 times washing with 250 μl PBST, bound antibody complexes were detected using TMB as substrate. The induced colour reaction was stopped after 5 min using 1M H2SO4 and detected at 450 nm. […]

thymidine phosphatase = target: T1, thymidine phosphatase (Homo sapiens, UniProt P19971); conditions: in blood serum or in cell extracts; cited from earlier work
T1 sequence (P19971 11-482): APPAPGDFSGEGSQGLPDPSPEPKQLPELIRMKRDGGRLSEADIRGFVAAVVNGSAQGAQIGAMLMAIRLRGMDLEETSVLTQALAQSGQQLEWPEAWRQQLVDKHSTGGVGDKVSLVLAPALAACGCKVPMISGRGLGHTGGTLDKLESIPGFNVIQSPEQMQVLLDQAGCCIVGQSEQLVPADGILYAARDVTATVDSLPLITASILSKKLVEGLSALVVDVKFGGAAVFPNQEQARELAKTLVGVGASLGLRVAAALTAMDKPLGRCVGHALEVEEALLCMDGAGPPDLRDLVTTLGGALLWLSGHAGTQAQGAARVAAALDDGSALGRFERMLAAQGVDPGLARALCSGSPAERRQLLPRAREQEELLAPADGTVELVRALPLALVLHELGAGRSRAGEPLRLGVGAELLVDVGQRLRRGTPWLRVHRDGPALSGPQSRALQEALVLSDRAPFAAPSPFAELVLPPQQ

TK1 = target: T2, TK1 (Homo sapiens, UniProt P04183); conditions: almost the same relative efficiency as Thymidine; cited from earlier work
T2 sequence (P04183 1-234): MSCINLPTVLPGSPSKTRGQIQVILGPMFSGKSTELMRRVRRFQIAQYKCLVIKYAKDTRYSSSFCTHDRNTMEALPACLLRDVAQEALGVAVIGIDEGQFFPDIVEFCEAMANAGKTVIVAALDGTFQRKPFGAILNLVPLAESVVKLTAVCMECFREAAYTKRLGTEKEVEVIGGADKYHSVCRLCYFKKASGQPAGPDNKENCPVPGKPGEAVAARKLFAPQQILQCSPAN

serum TK = experiment: Serum TK measurement with tritium labelled AZT; format: biochemical, human; conditions: 16 clinical patient serum samples, 4 h at 37° C.
Method: In order to determine if serum TK can use AZT as substrate, an experiment was performed with 16 clinical patient serum samples (20 μl) mixed with 2 μL ^3H-AZT (Ci/mmol Moraveck Inc, USA) and 20 μL reaction mixture containing 10 mM Tris-HCl (pH 7.6), 5 mM ATP, 5 mM MgCl2, 3.5 mM NaF, 2 mM DTT. The assay was performed 4 h at 37° C. and the amount of AZTMP formed was determined by DE 51 ion exchange paper method as described (9). Previous experiments had established that this amount of serum gave a linear reaction during the time period tested.

TK2 = target: T3, TK2 (Homo sapiens, UniProt O00142); conditions: cited from earlier work
T3 sequence (O00142 34-265): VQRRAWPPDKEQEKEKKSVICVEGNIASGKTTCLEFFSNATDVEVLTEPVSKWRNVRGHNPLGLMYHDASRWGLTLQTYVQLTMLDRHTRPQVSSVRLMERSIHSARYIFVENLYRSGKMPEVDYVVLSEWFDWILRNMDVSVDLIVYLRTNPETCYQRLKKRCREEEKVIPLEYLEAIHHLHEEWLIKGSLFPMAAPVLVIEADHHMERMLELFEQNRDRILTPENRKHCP

[2] = blood serum or cell extracts; cited from earlier work

Row | Compound | effect on TK values of tested sera (phosphatases) | competition with immobilised AZXMP for antibody binding [1] | substrate for thymidine phosphatase (thymidine phosphatase) | substrate quality for TK1 (TK1) | use as substrate by serum TK (serum TK) | phosphorylation by TK2 (TK2) | metabolic stability [2]
1 | O=c1ccn([C@@H]2O[C@H](COP(=O)(O)O)[C@@H](O)[C@H]2O)c(=O)[nH]1 [UMP, Uridine monophosphate] | significantly higher TK values | – | – | – | – | – | –
2 | Cc1cn([C@H]2C[C@H](N=[N+]=[N-])[C@@H](CO)O2)c(=O)[nH]c1=O [AZT, 3′-azido-3′-deoxythymidine] | – | not able to compete out AZXMP | does not use AZT as a substrate | good substrate for TK1 | can efficiently use AZT as substrate; also recorded: selective, efficient and stable substrates | low capacity to phosphorylate AZT | stable metabolites
3 | Cc1cn([C@H]2C[C@H](N=[N+]=[N-])[C@@H](COP(=O)(O)O)O2)c(=O)[nH]c1=O [AZTMP, AZT-5′-monophosphate] | – | – | – | – | – | – | stable metabolites
